Experimental data published in EP0357061B1, “Angiogenesis inhibitory agent” (priority 1988, dated 1990).
Converted amounts (≈) assume the structure as drawn. Read-outs that look alike come from different tables or passages of the source. Marks after values point to notes of the source that are not given here.

Tests used:
[1] = tested on: Human umbilical vein endothelial cells (HUVE); assay: Inhibition of human endothelial cell growth (MTT); assay type: cell-based; conditions: rbFGF 2 ng/ml, 5 day culture; for IC50: Homo sapiens, Endothelial cell, 120 h, read-out: (IC₅₀)
Procedure: Human umbilical vein endothelial cells (HUVE) were isolated by perfusion of an umbilical vein with a trypsin-containing medium. HUVE were cultured in GIT medium (Diago Eiyou Kagaku, Co., Japan) supplemented with 2.5% fetal bovine serum and 2.0 ng/ml of recombinant human basic fibroblast growth factor (rbFGF, Biotechnology Research Laboratories, Takeda, Osaka, Japan) at 37°C under 5% CO₂ and 7% O₂. HUVE were plated on 96-well microtiter plates (Nunc, 1-67008) at the cell density of 2 x 10³/100 »l of medium. The following day, 100 »l of medium containing rbFGF (2 ng/ml at the final concentration) and each compound (I) (shown by Example Numbers) at various concentrations were added to each well. […] After 5 day culture, medium was removed, 100 »l of 1 mg/ml of MTT (3-(4,5-dimethyl-2-thiazolyl)- 2,5-diphenyl-2H-tetrazolium bromide) solution was added to wells, and microtiters were kept at 37°C for 4 hours. Then, 100 »l of 10% sodium dodecyl sulfate (SDS) solution was added to wells, microtiters were kept at 37° for 5-6 hours. To determine the effects on cell number, the optical density ([…]) of each well was measured using an optical densitometer. […]

[2] = tested on: bFGF-induced angiogenesis; assay: rat cornea micropocket method (angiogenesis inhibitory activity); assay type: in vivo, Sprague-Dawley rats; conditions: rats with angiogenesis inhibitory activity / rats tested, sample pellet 20 »g
Procedure: The product compound (I) obtained in the examples given below were evaluated for angiogenesis inhibitory activity by the rat cornea micropocket method.
Essentially the method of Gimbrone et al. [J. National Cancer Institute, 52, 413-419 (1974)] was followed. Thus, adult male Sprague-Dawley rats (11 to 16 weeks of age) were anesthetized with nembutal and locally anesthetized by instillation of xylocaine eyedrops onto the eyeball. The cornea was incised to a length of about 2 mm at about 2mm inside from the corneal circumference by means of an injection needle, and a sustained release pellet containing basic fibroblast growth factor (bFGF; bovine brain-derived, purified product; R & D) and a sustained release pellet containing the test sample were inserted side by side into the incision so that the bFGF pellet was located on the central side in the cornea. In the control group, the bFGF pellet and a sample-free pellet were inserted into the cornea. After 7 days and after 10 days, the cornea was observed under a stereoscopic microscope.
The sustained release pellets were prepared in the following manner. An ethylene-vinyl acetate copolymer (Takeda Chemical Industries) was dissolved in dichloromethane to a concentration of 8%. A 3-»l portion of the solution was air-dried on a glass dish, an aqueous solution of bFGF (250 ng) was then placed thereon and air-dried and, finally 3 »l of the above ethylene-vinyl acetate copolymer solution was placed further thereon and air-dried to give a laminate consisting of two copolymer layers and a bFGF layer sandwiched therebetween. This sandwich sheet was made round into a bFGF pellet. The test sample pellets were prepared by dissolving each sample in ethanol in a concentration of 20 »g/2 »l, mixing the solution (2 »l) with 6 »l of an ethylene-vinyl acetate copolymer solution, air-drying the mixed solution on a glass dish and making the thus-obtained sheet round.

[3] = tested on: mouse reticulum cell sarcoma (M 5076); assay: Suppression of tumor formation in vivo (M 5076); parameters: species or system C57BL/6N mice; conditions: 30 mg/day subcutaneously, 10 injections over 12 days; tumor volume one day after the final injection
From the text: The tumor used in this assay was mouse reticulum cell sarcoma (M 5076), maintained by intraperitoneal transplantation into male C57BL/6N mice. The tumor cells in ascites were collected by centrifugation, and suspended in saline. The cell suspension (2 x 10⁶ cells/100 »l/mouse) was inoculated into right flanks of mice. Tumor-bearing mice were subcutaneously treated with the compound (I) (shown by Example Numbers) suspended in 5% arabic gum solution containing 1% of ethanol, for 12 days beginning one day after tumor inoculation (10 injections). The tumor growth was determined by measuring tumor size in two directions with calipers at intervals of a few days. The tumor volumes were calculated by the following formula. Tumor volume (mm³) = length x (width)² […]. [formula]

[4] = tested on: Bovine capillary endothelial cells; assay: Boyden chamber assay, capillary endothelial cell migration; assay type: cell-based; conditions: endothelial mitogen 200 »g/ml, 4 hours
Procedure: The Boyden chamber assay was carried out using a modification of the method of Falk et al., J. Immunol. Meth., 33:239-247 (1980) as follows: Bovine capillary endothelial cells were plated at 1.5 x 10⁴ cells per well in serum-free DMEM (Dulbecco's Modified Eagle's Medium) on one side of nucleopore filters pre-coated with fibronectin (7.3 »g fibronectin/ml PBS). […] Cells were exposed to endothelial mitogen (Biomedical Technologies, Massachusetts) at 200 »g/ml and different concentrations of the AGM-1470 in serum-free DMEM for 4 hours at 37°C. At the end of this incubation, the number of cells that migrated through 8» pores in the filters was determined by counting cells with an ocular grid at 100 X in quadruplicate.

[5] = tested on: Chick Chorioallantoic Membranes; assay: shell-less chorioallantoic membrane (CAM) assay; assay type: in vivo; conditions: after 48 - 72 hours
Procedure: The shell-less chorioallantoic membrane (CAM) assay was carried out by the method of Folkman et al. (R.Crum. S.Szabo and J.Folkman; Science. 230. 1375 (1985)) as follows: three-day chick embryos were removed from their shells to petri dishes (Falcon 1005) under sterile hood and cultured for further 3 days.
AGM-1470 was dissolved to a 0.45% methylcellulose aqueous solution and aliquots of 10 »l were pipetted onto Teflon rods. After the solution had dried, the methylcellulose disks (about 2 mm in diameter) containing the compound were implanted on the CAM of 6-day embryos.
An avascular zone represents a region in which regression of pre-existing vessels has occured.
Percent of avascular zones was calculated by counting the disks forming avascular zones per the total disks tested. In each group there were 12 to 16 embryos.

B16 Mouse Melanoma = assay type: in vivo
Procedure: Using the B16 Mouse Melanoma model described in Folkman et al., Science, 221:719-725 (1983), the angiogenesis inhibitory activity of AGM-1470 was further evaluated. Treatment (Rx) usually started when tumors were approximately 70-100 mm³, approximately 9 to 10 days after inoculation. Tumors were matched for size before inclusion in treated and untreated groups. AGM-1470 was dissolved in isotonic solution by incubating with glass beads and vigorously shaking overnight at 4°C. This preparation was administered subcutaneously at 30 mg/kg every other day.
Tumor growth is presented as a T/C ratio, as defined below. In essence, a ratio equal to "+ 1" means no inhibition, a ratio equal to "0" means complete suppression of growth, and a negative ratio indicates tumor regression. [formula]

**Q.** With `CO[C@@H]1[C@H](OC(=O)NC(=O)CCl)CC[C@]2(CO2)[C@H]1[C@@]1(C)O[C@@H]1CC=C(C)C` [Example 8, O-Chloroacetylcarbamoylfumagillol] as the molecule, how does the IC50 [1] read?
**A.** 0.01 ng/mL (≈ 0.0249 nM)

**Q.** What about the Inhibition rate ([2]; judged after 7 days) of the same molecule?
**A.** 6/6*

**Q.** What about the “T/C (%)” value [3] of the same molecule?
**A.** 14%

**Q.** And the IC50 ([4]; Bos taurus, Endothelial cell, read-out: Half maximal inhibition of endothelial mitogen-induced migration)?
**A.** ~0.1 ng/mL (≈ 0.249 nM)

**Q.** And the “inhibition of cell migration” value ([4]; dose of 100 »g/ml)?
**A.** completely inhibited

**Q.** What about the “Significant inhibition of migration, doses as low as” value [4] of the same molecule?
**A.** 10 femptograms/ml

**Q.** What about the “percent of avascular zones” value ([5]; dose 1 »g/10 »l methylcellulose) of the same molecule?
**A.** 33

**Q.** What about the “percent of avascular zones” value ([5]; dose 10 »g/10 »l methylcellulose) of the same molecule?
**A.** 62

**Q.** And the “percent of avascular zones” value ([5]; dose 25 »g/10 »l methylcellulose)?
**A.** 100

**Q.** And the “treated remained alive past day 55” value (B16 Mouse Melanoma; 30 mg/kg subcutaneously every other day)?
**A.** Day 37 100% untreated dead 50% AGM-1470 treated dead (50% of treated remained alive past day 55)

**Q.** What about the AGM-1470 treated dead (B16 Mouse Melanoma; Day 37 (100% untreated dead), 30 mg/kg subcutaneously every other day) of the same molecule?
**A.** Day 37 100% untreated dead 50% AGM-1470 treated dead (50% of treated remained alive past day 55)

**Q.** What about the toxicity (B16 Mouse Melanoma; mouse, in vivo) of the same molecule?
**A.** little or no toxicity

**Q.** And the T/C (B16 Mouse Melanoma; time of Rx 2 wk, 30 mg/kg subcutaneously every other day)?
**A.** 0.47

**Q.** And the T/C (B16 Mouse Melanoma; time of Rx 3 wk, 30 mg/kg subcutaneously every other day)?
**A.** 0.20

**Q.** How did the IC50 [1] turn out when `CO[C@@H]1[C@H](OC(=O)NC(=O)CCl)CC[C@]2(CO2)[C@H]1[C@@]1(C)O[C@@H]1CCC(C)C` [Example 51, O-Chloroacetylcarbamoyldihydrofumagillol] was run?
**A.** 0.14 ng/mL (≈ 0.347 nM)

**Q.** What about the Inhibition rate ([2]; judged after 10 days) of the same molecule?
**A.** 7/14

**Q.** What about the “T/C (%)” value [3] of the same molecule?
**A.** 22%

**Q.** For `C=CC(=O)NC(=O)O[C@@H]1CC[C@]2(CO2)[C@@H]([C@@]2(C)O[C@@H]2CC=C(C)C)[C@@H]1OC` [Example 58, O-Acryloylcarbamoylfumagillol], which Inhibition rate ([2]; judged after 10 days) is on record?
**A.** 6/6

**Q.** For `CO[C@@H]1[C@H](OC(=O)NC(=O)CSc2nc3ccccc3o2)CC[C@]2(CO2)[C@H]1[C@@]1(C)O[C@@H]1CC=C(C)C` [Example 60, O-[(2-Benzoxazolyl)thioacetylcarbamoyl]fumagillol], which Inhibition rate ([2]; judged after 10 days) is on record?
**A.** 4/6

**Q.** Which Inhibition rate ([2]; judged after 10 days) does the source give for `CO[C@@H]1[C@H](OC(=O)NC(=O)CSc2nc3ccccc3[nH]2)CC[C@]2(CO2)[C@H]1[C@@]1(C)O[C@@H]1CC=C(C)C` [Example 61, O-[(2-Benzoimidazolyl)thioacetylcarbamoyl]fumagillol] here?
**A.** 7/7

**Q.** `CO[C@@H]1[C@H](OC(=O)NC(=O)CSc2cccc3cccnc23)CC[C@]2(CO2)[C@H]1[C@@]1(C)O[C@@H]1CC=C(C)C` [Example 62, O-[(8-Quinolyl)thioacetylcarbamoyl]fumagillol] was tested. Which Inhibition rate ([2]; judged after 10 days) did it give?
**A.** 7/7

**Q.** `CO[C@@H]1[C@H](OC(=O)NC(=O)CSc2ccccn2)CC[C@]2(CO2)[C@H]1[C@@]1(C)O[C@@H]1CC=C(C)C` [Example 63, O-[(2-Pyridyl)thioacetylcarbamoyl]fumagillol] was tested. Which Inhibition rate ([2]; judged after 10 days) did it give?
**A.** 6/6

**Q.** Which Inhibition rate ([2]; judged after 10 days) does the source give for `CO[C@@H]1[C@H](OC(=O)NC(=O)CSc2ccncc2)CC[C@]2(CO2)[C@H]1[C@@]1(C)O[C@@H]1CC=C(C)C` [Example 64, O-[(4-Pyridyl)thioacetylcarbamoyl]fumagillol] here?
**A.** 5/5

**Q.** `CO[C@@H]1[C@H](OC(=O)NC(=O)CSC)CC[C@]2(CO2)[C@H]1[C@@]1(C)O[C@@H]1CC=C(C)C` [Example 65, O-(Methylthioacetylcarbamoyl)fumagillol] was tested. Which Inhibition rate ([2]; judged after 10 days) did it give?
**A.** 8/8

**Q.** For `COC1C(OC(=O)NC(=O)CSc2cnn[nH]2)CCC2(CO2)C1C1(C)OC1CC=C(C)C` (stereo not drawn) [Example 67, O-[(1,2,3-Triazol-5-yl)thioacetylcarbamoyl]fumagillol], which Inhibition rate ([2]; judged after 10 days) is on record?
**A.** 5/5

**Q.** With `COC1C(OC(=O)NC(=O)CSc2cc[n+](C)cc2)CCC2(CO2)C1C1(C)OC1CC=C(C)C` (stereo not drawn) [Example 69, O-[(N-Methylpyridin-4-ylium)thioacetylcarbamoyl]fumagillol iodide] as the molecule, how does the Inhibition rate ([2]; judged after 10 days) read?
**A.** 6/6

**Q.** `CCOC(=O)NC(=O)OC1CCC2(CO2)C(C2(C)OC2CC=C(C)C)C1OC` (stereo not drawn) [Example 70, O-[N-(Ethoxycarbonyl)carbamoyl]fumagillol] was tested. Which Inhibition rate ([2]; judged after 10 days) did it give?
**A.** 5/5

**Q.** For `COC1C(OC(=O)NC(=O)NC(=O)c2ccccc2)CCC2(CO2)C1C1(C)OC1CC=C(C)C` (stereo not drawn) [Example 75, O-(N'-Benzoylallophanoyl)fumagillol], which Inhibition rate ([2]; judged after 10 days) is on record?
**A.** 8/8

**Q.** Which results are given for “O-Chloroacetylcarbamoyl-6'b-hydroxyfumagillol [Example 76]”?
**A.** (IC₅₀) [1]: 0.12 ng/mL; T/C (%) [3]: 29%
